Measurements published in patent publication US9562033B2, “Inhibitors of viral replication, their process of preparation and their therapeutical uses” (LABORATOIRE BIODIM, priority 2012, dated 2017).

The molecules below were run on NL4-3 strain of HIV-1 (assay: HIV-1 replication inhibition: cyto-protection of MT4 cells infected with NL4-3 virus (CellTiter-Glo viability assay)). Settings: Human immunodeficiency virus 1, NL43, 120 h, concentration leading to 50% of cyto-protection, 5 days incubation.
Assay type: cell-based
Experimental: The antiviral activity, particularly against HIV, of compounds according to the invention is evaluated by the protocol described below.
Preparation of Virus Stock of the NL4-3 Strain of HIV-1
The virus was prepared as described in Lopez et al (Lopez et al, Proc Natl Acad Sci USA., 2006, 103(40):14947-52, by transfecting 2×10^6 293 T cells (CRL-1573, ATCC) with following modifications: 6 μg of NL4-3 proviral DNA molecular clone were mixed with Fugene 6 transfection reagent from Roche, and used according to manufacturer's instructions. Forty eight hours later, transfected cell supernatants were harvested, filtered through 0.45-μm-pore-size filters, quantified for HIV-1 p24 antigen by using a Innotest HIV antigen mAb assay (Ingen) according to manufacturer's instructions, and used in infection experiments.
Preparation of Compounds:
Serial dilutions of compounds to be tested were prepared in complete RPMI medium from 10 mM DMSO stock solutions, and distributed in a volume of 20 µl in 96 well Falcon 353072 Microtest™ tissue culture plate, in order to get 0.5% DMSO final concentration in each well, after the addition of infected cells. Control wells contained also 0.5% DMSO final concentration but no compound.
MT4 cells (from the NIH AIDS Research and Reference Reagent Program) in RPMI complete medium were counted (10×10^6 cells per well in Falcon 353047 Multiwell™ 24 well) and infected for 2 hours at 37°, at a multiplicity of infection (moi) of 0.0001-0.00001. Cells were then centrifuged 3 min at 3000 rpm, and washed two times in 1 ml PBS to remove viruses that have not entered in cells. Infected cells were resuspended in complete RPMI at 1.25×10^6 cells/ml, and 80 µl of infected cells were distributed in each well containing compounds to be tested or control wells. The plates were then incubated at 37° for 5 days.
Assay Used to Measure the Inhibition of HIV Replication by the Compounds
(according to Gregg S. Jones et al., Antimicrobial Agents and Chemotherapy, 2009, 53 (3): 1194-1203).
After 5 days of incubation, […] of CellTiter-Glo reagent (Promega Biosciences, Inc., Madison Wis., USA) were added to each well. Cell lysis was carried out at room temperature during 10 min, 150 μl of lysates were transferred in Packard Optiplate 96 well, and luminescence was read on a Fluoroskan (Thermo Scientific).

SMILES	EC50 [nM]
Cc1sc(-c2cccc(C(N)=O)c2)c(C2=CCC(C)(C)CC2)c1C(OC(C)(C)C)C(=O)O (stereo not drawn) [Example 31, 2-(tert-butoxy)-2-[4-(4,4-dimethylcyclohex-1-en-1-yl)-2-methyl-5-(aminocarbonylphen-3-yl)thiophen-3-yl]acetic acid]	40
Cc1sc(-c2ccc(S(N)(=O)=O)cc2)c(C2=CCC(C)(C)CC2)c1C(OC(C)(C)C)C(=O)O (stereo not drawn) [Example 32, 2-(tert-butoxy)-2-[4-(4,4-dimethylcyclohex-1-en-1-yl)-2-methyl-5-(benzenesulfonamide-4-yl)thiophen-3-yl]acetic acid]	430
CC(=O)Nc1ccc(-c2sc(C)c(C(OC(C)(C)C)C(=O)O)c2C2=CCC(C)(C)CC2)cc1 (stereo not drawn) [Example 33, 2-(tert-butoxy)-2-[4-(4,4-dimethylcyclohex-1-en-1-yl)-2-methyl-5-(acetamidophen-4-yl)thiophen-3-yl]acetic acid]	230
Cc1sc(-c2ccc(=O)n(Cc3ccccc3)c2)c(C2=CCC(C)(C)CC2)c1C(OC(C)(C)C)C(=O)O (stereo not drawn) [Example 34]	750
CCCn1cc(-c2sc(C)c(C(OC(C)(C)C)C(=O)O)c2C2=CCC(C)(C)CC2)ccc1=O (stereo not drawn) [Example 35]	340
CCCNC(=O)c1ccc(-c2sc(C)c(C(OC(C)(C)C)C(=O)O)c2C2=CCC(C)(C)CC2)cc1 (stereo not drawn) [Example 36, 2-(tert-butoxy)-2-[4-(4,4-dimethylcyclohex-1-en-1-yl)-2-methyl-5-[4-(propylcarbamoyl)phenyl]thiophen-3-yl]acetic acid]	100
Cc1sc(-c2ccc(=O)n(CC3CC3)c2)c(C2=CCC(C)(C)CC2)c1C(OC(C)(C)C)C(=O)O (stereo not drawn) [Example 37]	320
CC(C)(C)OC(C(=O)O)c1c(CO)sc(-c2ccncc2)c1-c1ccc2c(c1)CCCO2 (stereo not drawn) [Example 38, 2-(tert-butoxy)-2-[4-(3,4-dihydro-2H-1-benzopyran-6-yl)-2-(hydroxymethyl)-5-(pyridin-4-yl)thiophen-3-yl]acetic acid]	2300
Cc1sc(-c2ccncc2)c(-c2cc(F)c3c(c2C)CCCO3)c1C(OC(C)(C)C)C(=O)O (stereo not drawn) [Example 39, 2-(tert-butoxy)-2-[4-(8-fluoro-5-methyl-3,4-dihydro-2H-1-benzopyran-6-yl)-2-methyl-5-(pyridin-4-yl)thiophen-3-yl]acetic acid]	730
Cc1sc(-c2ccncc2)c(-c2cc(F)c3c(c2)CCCO3)c1C(OC(C)(C)C)C(=O)O (stereo not drawn) [Example 40, 2-(tert-butoxy)-2-[4-(8-fluoro-3,4-dihydro-2H-1-benzopyran-6-yl)-2-methyl-5-(pyridin-4-yl)thiophen-3-yl]acetic acid]	360
CNC(=O)c1cccc(-c2sc(C)c(C(OC(C)(C)C)C(=O)O)c2C2=CCC(C)(C)CC2)c1 (stereo not drawn) [Example 41, 2-(tert-butoxy)-2-[4-(4,4-dimethylcyclohex-1-en-1-yl)-2-methyl-5-(methylaminocarbonylphen-3-yl)thiophen-3-yl]acetic acid]	50
CCCNC(=O)c1cccc(-c2sc(C)c(C(OC(C)(C)C)C(=O)O)c2C2=CCC(C)(C)CC2)c1 (stereo not drawn) [Example 42, 2-(tert-butoxy)-2-[4-(4,4-dimethylcyclohex-1-en-1-yl)-2-methyl-5-[3-(propylcarbamoyl)phenyl]thiophen-3-yl]acetic acid]	40
Cc1sc(-c2ccccn2)c(C2=CCC(C)(C)CC2)c1C(OC(C)(C)C)C(=O)O (stereo not drawn) [Example 43, 2-(tert-butoxy)-2-[4-(4,4-dimethylcyclohex-1-en-1-yl)-2-methyl-5-(pyridin-2-yl)thiophen-3-yl]acetic acid]	440
Cc1sc(-c2ccccc2)c(C2=CCC(C)(C)CC2)c1C(OC(C)(C)C)C(=O)O (stereo not drawn) [Example 44, 2-(tert-butoxy)-2-[4-(4,4-dimethylcyclohex-1-en-1-yl)-2-methyl-5-phenylthiophen-3-yl]acetic acid]	230
Cc1sc(-c2nccs2)c(C2=CCC(C)(C)CC2)c1C(OC(C)(C)C)C(=O)O (stereo not drawn) [Example 45, 2-(tert-butoxy)-2-[4-(4,4-dimethylcyclohex-1-en-1-yl)-2-methyl-5-(1,3-thiazol-2-yl)thiophen-3-yl]acetic acid]	440
Cc1ccc(-c2sc(C)c(C(OC(C)(C)C)C(=O)O)c2C2=CCC(C)(C)CC2)nc1 (stereo not drawn) [Example 46, 2-(tert-butoxy)-2-[4-(4,4-dimethylcyclohex-1-en-1-yl)-2-methyl-5-(5-methylpyridin-2-yl)thiophen-3-yl]acetic acid]	450
Cc1cccnc1-c1sc(C)c(C(OC(C)(C)C)C(=O)O)c1C1=CCC(C)(C)CC1 (stereo not drawn) [Example 47, 2-(tert-butoxy)-2-[4-(4,4-dimethylcyclohex-1-en-1-yl)-2-methyl-5-(3-methylpyridin-2-yl)thiophen-3-yl]acetic acid]	510
Cc1sc(-c2ccncc2)c(C2=CCC(CF)(CF)CC2)c1C(OC(C)(C)C)C(=O)O (stereo not drawn) [Example 48, [4-(4,4-bis-fluoromethyl-cyclohex-1-enyl)-2-methyl-5-pyridin-4-yl-thiophen-3-yl]-tert-butoxy-acetic acid]	130
Cc1sc(-c2ncccn2)c(C2=CCC(C)(C)CC2)c1C(OC(C)(C)C)C(=O)O (stereo not drawn) [Example 49, 2-(tert-butoxy)-2-{2-methyl-4-[4,4-dimethylcyclohex-1-en-1-yl]-5-(Pyrimidin-2-yl)thiophen-3-yl}acetic acid]	990
Cc1sc(-n2cccn2)c(C2=CCC(C)(C)CC2)c1C(OC(C)(C)C)C(=O)O (stereo not drawn) [Example 50, 2-(tert-butoxy)-2-[4-(4,4-dimethylcyclohex-1-en-1-yl)-2-methyl-5-(1H-pyrazol-1-yl)thiophen-3-yl]acetic acid]	770
CCCc1cccc(-c2sc(C)c(C(OC(C)(C)C)C(=O)O)c2C2=CCC(C)(C)CC2)n1 (stereo not drawn) [Example 51, 2-(tert-butoxy)-2-{2-methyl-4-[4,4-dimethylcyclohex-1-en-1-yl]-5-(6-(n-propyl)pyridin-2-yl)thiophen-3-yl}acetic acid]	270
CCCc1ccc(-c2sc(C)c(C(OC(C)(C)C)C(=O)O)c2C2=CCC(C)(C)CC2)nc1 (stereo not drawn) [Example 52, 2-(tert-butoxy)-2-{2-methyl-4-[4,4-dimethylcyclohex-1-en-1-yl]-5-(5-(n-propyl)pyridin-2-yl)thiophen-3-yl}acetic acid]	930
Cc1sc(-c2ccncc2)c(C2=CCC(C)(CF)CC2)c1C(OC(C)(C)C)C(=O)O (stereo not drawn) [Example 53, [4-(4-fluoromethyl-4-methylcyclohex-1-enyl)-2-methyl-5-pyridin-4-yl-thiophen-3-yl]-tert-butoxy-acetic acid]	70
Cc1sc(-c2cscn2)c(C2=CCC(C)(C)CC2)c1C(OC(C)(C)C)C(=O)O (stereo not drawn) [Example 54, 2-(tert-butoxy)-2-{2-methyl-4-[4,4-dimethylcyclohex-1-en-1-yl]-5-(thiazol-4-yl)thiophen-3-yl}acetic acid]	470
Cc1sc(-c2ccccc2C(N)=O)c(C2=CCC(C)(C)CC2)c1C(OC(C)(C)C)C(=O)O (stereo not drawn) [Example 55, 2-(tert-butoxy)-2-{2-methyl-4-[4,4-dimethylcyclohex-1-en-1-yl]-5-(carboxamidephen-2-yl)thiophen-3-yl}acetic acid]	90
CNC(=O)c1ccccc1-c1sc(C)c(C(OC(C)(C)C)C(=O)O)c1C1=CCC(C)(C)CC1 (stereo not drawn) [Example 56, 2-(tert-butoxy)-2-{2-methyl-4-[4,4-dimethylcyclohex-1-en-1-yl]-5-(N-methylbenzamide-2-yl)thiophen-3-yl}acetic acid]	120
Cc1sc(C2=CCCCC2)c(C2=CCC(C)(C)CC2)c1C(OC(C)(C)C)C(=O)O (stereo not drawn) [Example 57, 2-(tert-butoxy)-2-[4-(4,4-dimethylcyclohex-1-en-1-yl)-5-(cyclohexen-1-yl)-2-methylthiophen-3-yl]acetic acid]	1200
Cc1sc(-c2ccsn2)c(C2=CCC(C)(C)CC2)c1C(OC(C)(C)C)C(=O)O (stereo not drawn) [Example 58, 2-(tert-butoxy)-2-{2-methyl-4-[4,4-dimethylcyclohex-1-en-1-yl]-5-(isothiazol-3-yl)thiophen-3-yl}acetic acid]	110
Cc1sc(C2=CCCC2)c(C2=CCC(C)(C)CC2)c1C(OC(C)(C)C)C(=O)O (stereo not drawn) [Example 59, 2-(tert-butoxy)-2-[4-(4,4-dimethylcyclohex-1-en-1-yl)-5-(cyclopenten-1-yl)-2-methylthiophen-3-yl]acetic acid]	670
CC(C)(C)OC(C(=O)O)c1c(C(F)(F)F)sc(-c2ccccc2)c1-c1ccc2c(c1)CCCO2 (stereo not drawn) [Example 60, 2-(tert-butoxy)-2-[4-(3,4-dihydro-2H-1-benzopyran-6-yl)-5-phenyl-2-(trifluoromethyl)thiophen-3-yl]acetic acid]	500
